The record followed here is patent publication US20030134848A1, “Substituted 1-aza-2-imino-heterocycles and their use as nicotinic acetylcholin receptors activators” (priority 2000, published 2003).

As a reminder, the Ki is a dissociation constant, usually derived from enzyme kinetics or from competition with a known ligand.

In one assay the target is T1, α4β2 subtype of nicotinic acetylcholine receptors (Rattus norvegicus, UniProt P09483+P12390).
T1 construct: rat brain membrane obtained from whole homogenized brain; from tissue; host or cells: whole brain of Fischer-344 male rats, membrane fraction
T1 sequence (P09483 31-630): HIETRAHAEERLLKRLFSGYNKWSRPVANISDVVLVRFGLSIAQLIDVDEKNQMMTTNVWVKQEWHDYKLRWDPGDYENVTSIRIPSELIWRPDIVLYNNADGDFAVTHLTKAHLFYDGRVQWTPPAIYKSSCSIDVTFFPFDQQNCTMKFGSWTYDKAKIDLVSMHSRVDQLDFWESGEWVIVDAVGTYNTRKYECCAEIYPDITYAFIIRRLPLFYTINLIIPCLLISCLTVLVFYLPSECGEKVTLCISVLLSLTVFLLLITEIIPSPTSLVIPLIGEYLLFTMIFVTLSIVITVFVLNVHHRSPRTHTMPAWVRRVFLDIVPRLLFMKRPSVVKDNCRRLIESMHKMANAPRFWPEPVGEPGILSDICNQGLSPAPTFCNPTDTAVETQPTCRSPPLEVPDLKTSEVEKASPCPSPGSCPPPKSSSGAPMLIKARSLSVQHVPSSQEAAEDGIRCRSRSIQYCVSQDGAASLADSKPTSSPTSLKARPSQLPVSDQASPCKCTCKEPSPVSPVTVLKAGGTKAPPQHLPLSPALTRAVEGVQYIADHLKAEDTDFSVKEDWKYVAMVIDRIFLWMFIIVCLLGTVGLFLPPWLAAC
T1 sequence (P12390 25-500): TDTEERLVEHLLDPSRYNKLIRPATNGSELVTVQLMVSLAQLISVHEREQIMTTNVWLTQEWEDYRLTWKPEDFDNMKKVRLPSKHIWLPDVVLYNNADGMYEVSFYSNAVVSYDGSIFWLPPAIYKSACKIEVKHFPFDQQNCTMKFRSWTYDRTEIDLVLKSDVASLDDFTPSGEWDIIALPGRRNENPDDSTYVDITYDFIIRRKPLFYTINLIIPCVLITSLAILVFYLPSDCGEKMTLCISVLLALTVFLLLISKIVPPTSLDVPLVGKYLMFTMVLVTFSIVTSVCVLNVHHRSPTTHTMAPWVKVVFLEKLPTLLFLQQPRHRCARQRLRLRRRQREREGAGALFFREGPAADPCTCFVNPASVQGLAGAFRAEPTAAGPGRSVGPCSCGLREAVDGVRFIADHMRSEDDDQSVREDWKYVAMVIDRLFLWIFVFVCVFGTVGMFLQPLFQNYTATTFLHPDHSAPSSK
The assay can be described thus: Binding assay at α4β2 subtype of nicotinic acetylcholine receptors ([3H]-cytisine, rat brain membrane).
Conditions: not given
The source says: The methods for evaluating the binding capabilities of the compounds at nicotinic acetylcholine receptors are different by subtypes of receptors. The binding capabilities of the compounds at α4β2 nicotinic acetylcholine receptors are examined using rat brain membrane obtained from whole homogenized brain, and determining the inhibiting rate of the compounds against [^3H]-cytisine binding to said brain membrane. Furthermore, the binding capabilities of the compounds at α1β1γδ nicotinic acetylcholine receptors are examined using homogenized rat muscle, and determining the inhibiting rate of the compounds against [^3H]-α-bungarotoxin binding to said muscle homogenate.
The affinity of the compounds of the present invention to α4β2 subtype of nicotinic acetylcholine receptors was performed by the following method, which was modified method described by Pabreza L. A., Dhawan S. & Kellar K. J., Mol. Pharm., 39, 9-12 (1990), and by Anderson D. J. & Arneric S. P., Eur. J. Pharm., 253, 261-267 (1994).
(1) Preparation of Rat Brain Membrane Containing α4β2 Subtype of Nicotinic Acetylcholine Receptors
Fischer-344 strain male rats (body weight: 200-240 g; 9 weeks old) obtained from Charles River Japan were used. Rats were housed in the breeding cage controlled of the room temperature at 23±1° C., and the humidity of 55±5% for 1 to 4 weeks. Rats (3 to 4 rats per a cage) were housed with lights on for 12 hours daily (from 7:00 to 19:00), and allowed free access to food and water.
Preparation of rat brain membrane containing α4β2 subtype of nicotinic acetylcholine receptors was performed as follow. That is, rat brains were isolated just after sacrificed by decapitation, washed with ice-cooled saline solution and then frozen at −80° C. with liquid nitrogen and stored till using. After thawing the frozen brain, the brain was homogenized in 10 volumes of ice-cooled buffer solution (50 mM of Tris-HCl, 120 mM of NaCl, 5 mM of KCl, 1 mM of MgCl2, 2 mM of CaCl2; pH 7.4; 4° C.) using homogenizer (HG30, Hitachi Kohki Ltd.) for 30 seconds, and the homogenate were centrifuged under 1,000×G for 10 minutes at 4° C. The resulting supernatant was separated and the pellet was homogenized again with half volume of aforementioned prior buffer solution and centrifuged under the same conditions. Combined supernatant was further centrifuged under 40,000×G for 20 minutes at 4° C. The pellet was suspended in buffer solution and used for binding assays at receptors.
(2) Experiments of α4β2 Subtype of Nicotinic Acetylcholine Receptors Binding
Suspensions of membrane pellets containing 400-600 μg of protein were added to test tubes containing test compounds and [^3H]-cytisine (2 nM) in a final volume of 200 μl and incubated for 75 minutes in ice-cooled bath. The samples were isolated by vacuum filtration onto Whatman GF/B filters, which were prerinsed with 0.5% polyethylenimine just prior to sample filtration, using Brandel multi manifold cell harvester. The filters were rapidly washed with buffer solution (3×1 ml). The filters were counted in 3 ml of clearsol I (Nacalai Tesque Inc.).
The analyses of the experimental results were conducted by using the Accufit Competition Program (Beckman Ltd.).
With `N=C1NCCCN1CCc1ccc(Cl)nc1` [Compound 12, 1-[2-(6-chloro-3-pyridyl)ethyl]-2-imino-1,2,3,4,5,6-hexahydro-pyrimidine], the inhibitory constant (Ki) came to 1.4 nM.

For the compound `Nc1nccn1CCc1cnc(Cl)c(Cl)c1` [Compound 13, 2-amino-1-[2-(5,6-dichloro-3-pyridyl)ethyl]-imidazole], the Ki was 3.1 nM.

For the compound `Nc1nccn1CCc1cnc(Cl)s1` [Compound 23, 2-amino-1-[2-(2-chloro-5-thiazolyl)ethyl]imidazole], the Ki came to 8.5 nM.

For `Nc1nccn1CCc1cncnc1` [Compound 29, 2-amino-1-[2-(5-pyrimidyl)ethyl]imidazole], affinity was put at a Ki of 6 nM.

The same assay, now with this note: 1 μM of test compound; rat brain membrane; read-out: control % of [3H]-cytisine binding.
Consider `Nc1nccn1CCc1cnccn1` [Compound 31, 2-amino-1-[2-(2-pyrazinyl)ethyl]imidazole], for which the remaining activity at 1 µM amounted to 75%.

Staying with this assay, now noted: 10 μM of test compound; rat brain membrane; read-out: control % of [3H]-cytisine binding.
On to `Nc1nccn1CCc1cnccn1` [Compound 31, 2-amino-1-[2-(2-pyrazinyl)ethyl]imidazole], for which the remaining activity at 10 µM turned out to be 22%.

Staying with this assay, now noted: rat brain membrane, [3H]-cytisine 2 nM; read-out: Affinities for receptors Ki α4β2.
For `Cc1ccc(CCn2ccnc2N)cn1` [Compound 11, 2-amino-1-[2-(6-methyl-3-pyridyl)ethyl]imidazole], the inhibitory constant (Ki) turned out to be 21 nM.

`Nc1nccn1CCc1cccnc1` [Compound 14, 2-amino-1-[2-(3-pyridyl)ethyl]imidazole]: the inhibition constant Ki was found to be 3.5 nM.

Turning to `Nc1nccn1CCc1cncc(Br)c1` [Compound 25, 2-amino-1-[2-(5-bromo-3-pyridyl)ethyl]imidazole], the Ki was determined as 2 nM.

Take `Cc1cncc(CCn2ccnc2N)c1` [Compound 27, 2-amino-1-[2-(5-methyl-3-pyridyl)ethyl]imidazole]: the Ki was 21 nM.

Take `Nc1nccn1CCc1cccnn1` [Compound 30, 2-amino-1-[2-(3-pyridazinyl)ethyl]imidazole]: the Ki was 40 nM.

Turning to `Nc1nccn1CCc1ccnnc1` [Compound 34, 2-amino-1-[2-(4-pyridazinyl)ethyl]imidazole], the Ki stood at 68 nM.
